In patent US5994349A, “3-carboalkoxy-2, 3-dihydro-1H-phenothiazin-4[10H]-one derivatives” (priority 1997, dated 1999):
Like-named read-outs stand apart in the source and are kept apart here.

Key:
[1] = test system: maximal electroshock seizures; assay: maximal electroshock (MES) test, Phase I, mice ip; assay type: in vivo, male Carworth Farms No. 1 (CF1) mice; details: for responders at 30 mg/kg / responders at 100 mg/kg / responders at 300 mg/kg / responders at 10 mg/kg: Mus musculus
Protocol: (§1) Initial evaluations for anticonvulsant activity include phases I, VIA and VIB test procedures. These tests are performed intraperitoneally in male Carworth Farms No. 1 (CF1) mice, weighing 18-25 g (Phase I) or orally in male Sprague-Dawley rats, weighing 100-150 g (Phases VIA and VIB). The evaluation is based on three tests: maximal electroshock (MES), subcutaneous (scMet), and the rotorod test for neurological toxicity (Tox). (a) Anticonvulsant Screening Project, Antiepileptic Drug Development Program, National Institutes of Health, DHEW Publ (NIH)(U.S.) 1978, NIH 78-1093. (b) Porter, R. J.; Cereghino, J. J.; Gladding, G. D.; Hessie, B. J.; Kupferberg, H. J.; Scoville, B.; White, B. G. Antiepileptic drug development program. Cleveland Clin. Q. 1984, 51, 293-305. (c) Krall, R. L.; Penry, J. K.; White, B. G.; Kupferberg, H. J.; Swinyard, E. A. Antiepileptic drug development: II. Anticonvulsant drug screening. Epilepsia 1978, 19, 400-428. In the MES test, maximal electroshock seizures are elicited with a 60- cycle alternating current of 50 mA intensity (5-7 times that necessary to elicit minimal electroshock seizures) delivered via corneal electrodes for 0.2 seconds. A drop of 0.9% saline is placed on the eye prior to application of the electrodes in order to […]. Abolition of the hind limb tonic extension component of the seizure is defined as protection and results are expressed as the number of animals protected/the number of animals tested.
In phase I, compounds are suspended in 0.5% aqueous methylcellulose and are administered intraperitoneally at three dosage levels (30, 100, and 300 mg/kg) with anticonvulsant activity and motor impairment noted 30 min and 4 h (and in some cases 2 h and 6 h) after administration.

[2] = test system: pentylenetetrazol seizures; assay: subcutaneous pentylenetetrazol (scMet) test, Phase I, mice ip; assay type: in vivo, male Carworth Farms No. 1 (CF1) mice; details: for responders at 30 mg/kg / responders at 100 mg/kg / responders at 300 mg/kg / responders at 10 mg/kg: Mus musculus
Protocol: as §1
In the sc MET test, eighty-five mg/kg of pentylenetetrazol, which induces seizures in more than 95% of mice, is administered as a 0.5% solution subcutaneously in the posterior midline. The animal is observed for 30 minutes. Failure to observe even a threshold seizure (a single episode of clonic spasms of at least 5 seconds duration) is defined as protection and the results are expressed as the number of animals protected/ the number of animals tested. […]

neurotoxicity (rotorod) [3] = assay: rotorod test for neurological toxicity (Tox), Phase I, mice ip; assay type: in vivo, male Carworth Farms No. 1 (CF1) mice
Protocol: as §1
The rotorod test is used to evaluate neurotoxicity. The animal is placed on a 1 inch diameter knurled plastic rod rotating at 6 rpm. Normal mice can remain on a rod rotating at this speed indefinitely. […]

[4] = test system: maximal electroshock seizures; assay: maximal electroshock (MES) test, oral rat (Phase VIA/VIB); assay type: in vivo, male Sprague-Dawley rats; details: 30 mg/kg
Protocol: as §1
(§2) To differentiate the results between different rodent species, 4b (X=H), as well as 4a (R=H), 4e (R=Cl), 4f (R=Cl) and 4i (R=CH3) are subsequently evaluated for oral (po) activity in the rat (Phase VIA or VIB).

neurotoxicity (rotorod) [5] = assay: rotorod toxicity, oral rat (Phase VIA/VIB); assay type: in vivo, male Sprague-Dawley rats; details: rat oral, 30 mg/kg
Protocol: as §1
The rotorod test is used to evaluate neurotoxicity. The animal is placed on a 1 inch diameter knurled plastic rod rotating at 6 rpm. Normal mice can remain on a rod rotating at this speed indefinitely.
as §2

[6] = 100 mg/kg, 4 h, read-out: MES 4 h (converted)
[7] = 4 h, read-out: MES 4 h (converted)
[8] = 0.5 h, 30 min, read-out: MES 30 min (converted)
[9] = 0.5 h, 100 mg/kg, 30 min, read-out: MES 30 min (converted)
[10] = 0.5 h, mice ip, 30 min, read-out: scMet 30 min
[11] = 0.5 h, mice ip, 30 min, read-out: scMet 30 min (converted)
[12] = mice ip, 4 h, read-out: scMet 4 h
[13] = mice ip, 4 h, read-out: scMet 4 h (converted)
[14] = 0.5 h, 30 min, read-out: MES 30 min
[15] = 0.5 h, mice ip, 10 mg/kg, 30 min, read-out: scMet 30 min
[16] = mice ip, 10 mg/kg, 4 h, read-out: scMet 4 h

## C[C@@H]1CC2=C(Sc3cc(Cl)ccc3N2)C(=O)[C@H]1C(=O)OC(C)(C)C (relative stereo) [Compound 4g, 7-Chloro-3-carbo-ter-butoxy-2-methyl-2,3-dihydro-1H-phenothiazin-4[10H]-one]
[1]; 4 h, read-out: MES 4 h
  responders at 30 mg/kg: 0%
[1]; [6]
  responders at 100 mg/kg: 33.3%
[1]; [7]
  responders at 300 mg/kg: 100%
[1]; [8]
  responders at 30 mg/kg: 0%
  responders at 300 mg/kg: 0%
[1]; [9]
  responders at 100 mg/kg: 0%
[2]; [10]
  responders at 30 mg/kg: 0%
  responders at 100 mg/kg: 0%
[2]; [11]
  responders at 300 mg/kg: 0%
[2]; [12]
  responders at 30 mg/kg: 0%
  responders at 100 mg/kg: 0%
[2]; [13]
  responders at 300 mg/kg: 0%
Neurotoxicity (rotorod) [3]; 30 mg/kg
  Tox 30 min: 0/4
  Tox 4 h: 0/2
Neurotoxicity (rotorod) [3]; 100 mg/kg
  Tox 30 min: 0/8
  Tox 4 h: 0/4
Neurotoxicity (rotorod) [3]; 300 mg/kg
  Tox 30 min: 0/4
  Tox 4 h: 0/2

## COC(=O)[C@@H]1C(=O)C2=C(C[C@H]1C)Nc1ccc(Br)cc1S2 (relative stereo) [Compound 4j, 7-Bromo-3-carbomethoxy-2-methyl-2,3-dihydro-1H-phenothiazin-4[10H]-one]
[4]; 0.25 h
  responders at 30 mg/kg: 50%
[4]; 1.00 h
  responders at 30 mg/kg: 50%
[4]; 0.5 h, 0.50 h
  responders at 30 mg/kg: 75%
Neurotoxicity (rotorod) [5]; 0.25 h
  Tox: 0/4
Neurotoxicity (rotorod) [5]; 0.50 h
  Tox: 0/4
Neurotoxicity (rotorod) [5]; 1.00 h
  Tox: 0/2
[1]; 4 h, read-out: MES 4 h
  responders at 10 mg/kg: 0%
  responders at 30 mg/kg: 0%
[1]; [6]
  responders at 100 mg/kg: 0%
[1]; [14]
  responders at 10 mg/kg: 0%
[1]; [8]
  responders at 30 mg/kg: 33.3%
[1]; [9]
  responders at 100 mg/kg: 100%
[2]; [15]
  responders at 10 mg/kg: 0%
[2]; [10]
  responders at 30 mg/kg: 0%
  responders at 100 mg/kg: 0%
[2]; [16]
  responders at 10 mg/kg: 0%
[2]; [12]
  responders at 30 mg/kg: 0%
  responders at 100 mg/kg: 0%
[2]; mice ip, 10 and 30 mg/kg, 30 min
  observation in scMet test (footnote g): Continuous seizure activity
[2]; mouse, in vivo, ip, 10 mg/kg
  observation in scMet test (footnote h): Death following continuous seizure
Neurotoxicity (rotorod) [3]; 10 mg/kg
  Tox 30 min: 0/4
  Tox 4 h: 0/2
Neurotoxicity (rotorod) [3]; 30 mg/kg
  Tox 30 min: 0/8
  Tox 4 h: 0/4
Neurotoxicity (rotorod) [3]; 100 mg/kg
  Tox 30 min: 0/4
  Tox 4 h: 0/2

## CCOC(=O)[C@@H]1C(=O)C2=C(C[C@H]1C)Nc1ccc(Cl)cc1S2 (relative stereo) [Compound 4f, 7-Chloro-3-carbethoxy-2-methyl-2,3-dihydro-1H-phenothiazin-4[10H] -one]
[4]; 0.25 h
  responders at 30 mg/kg: 0%
[4]; 1.00 h
  responders at 30 mg/kg: 75%
[4]; 2.00 h
  responders at 30 mg/kg: 75%
[4]; 4.00 h
  responders at 30 mg/kg: 75%
[4]; 0.5 h, 0.50 h
  responders at 30 mg/kg: 25%
Neurotoxicity (rotorod) [5]; 0.25 h
  Tox: 0/4
Neurotoxicity (rotorod) [5]; 0.50 h
  Tox: 0/4
Neurotoxicity (rotorod) [5]; 1.00 h
  Tox: 0/4
Neurotoxicity (rotorod) [5]; 2.00 h
  Tox: 0/4
Neurotoxicity (rotorod) [5]; 4.00 h
  Tox: 0/4
[1]; 4 h, read-out: MES 4 h
  responders at 30 mg/kg: 0%
[1]; [6]
  responders at 100 mg/kg: 33.3%
[1]; [7]
  responders at 300 mg/kg: 100%
[1]; [8]
  responders at 30 mg/kg: 0%
  responders at 300 mg/kg: 100%
[1]; [9]
  responders at 100 mg/kg: 66.7%
[2]; [10]
  responders at 30 mg/kg: 0%
  responders at 100 mg/kg: 0%
[2]; [11]
  responders at 300 mg/kg: 0%
[2]; [12]
  responders at 30 mg/kg: 0%
  responders at 100 mg/kg: 0%
[2]; [13]
  responders at 300 mg/kg: 40%
Neurotoxicity (rotorod) [3]; 30 mg/kg
  Tox 30 min: 0/4
  Tox 4 h: 0/2
Neurotoxicity (rotorod) [3]; 100 mg/kg
  Tox 30 min: 0/8
  Tox 4 h: 0/4
Neurotoxicity (rotorod) [3]; 300 mg/kg
  Tox 30 min: 0/4
  Tox 4 h: 0/2

## COC(=O)[C@@H]1C(=O)C2=C(C[C@H]1C)Nc1ccc(C)cc1S2 (relative stereo) [Compound 4h]
[1]; 100 mg/kg, 0.25 h
  MES animals protected at 0.25 h: 2/3
[1]; 4 h, read-out: MES 4 h
  responders at 30 mg/kg: 0%
[1]; [6]
  responders at 100 mg/kg: 33.3%
[1]; [7]
  responders at 300 mg/kg: 100%
[1]; [8]
  responders at 30 mg/kg: 0%
  responders at 300 mg/kg: 100%
[1]; [9]
  responders at 100 mg/kg: 0%
[2]; [10]
  responders at 30 mg/kg: 0%
  responders at 100 mg/kg: 0%
[2]; [11]
  responders at 300 mg/kg: 0%
[2]; [12]
  responders at 30 mg/kg: 0%
  responders at 100 mg/kg: 0%
Neurotoxicity (rotorod) [3]; 30 mg/kg
  Tox 30 min: 0/4
  Tox 4 h: 0/2
Neurotoxicity (rotorod) [3]; 100 mg/kg
  Tox 30 min: 0/8
  Tox 4 h: 0/4
Neurotoxicity (rotorod) [3]; 300 mg/kg
  Tox 30 min: 0/3
  Tox 4 h: 0/1

## C[C@@H]1CC2=C(Sc3ccccc3N2)C(=O)[C@H]1C(=O)OC(C)(C)C (relative stereo) [Compound 4c, 3-Carbo-ter-butoxy-2-methyl-2,3-dihydro-1H-phenothiazin-4[10H]-one]
[1]; 100 mg/kg, 2 h
  MES animals protected at 2 h: 1/3
[1]; 100 mg/kg, 6 h
  MES animals protected at 6 h: 0/3
[1]; 4 h, read-out: MES 4 h
  responders at 30 mg/kg: 0%
[1]; [6]
  responders at 100 mg/kg: 33.3%
[1]; [7]
  responders at 300 mg/kg: 100%
[1]; [8]
  responders at 30 mg/kg: 0%
  responders at 300 mg/kg: 0%
[1]; [9]
  responders at 100 mg/kg: 0%
[2]; [10]
  responders at 30 mg/kg: 0%
  responders at 100 mg/kg: 0%
[2]; [11]
  responders at 300 mg/kg: 0%
[2]; [12]
  responders at 30 mg/kg: 0%
  responders at 100 mg/kg: 0%
[2]; [13]
  responders at 300 mg/kg: 0%
Neurotoxicity (rotorod) [3]; 30 mg/kg
  Tox 30 min: 0/4
  Tox 4 h: 0/2
Neurotoxicity (rotorod) [3]; 100 mg/kg
  Tox 30 min: 0/8
  Tox 4 h: 0/4
Neurotoxicity (rotorod) [3]; 100 mg/kg, 2 h
  toxic at 2 h: 1/3
Neurotoxicity (rotorod) [3]; 100 mg/kg, 6 h
  toxic at 6 h: 0/3
Neurotoxicity (rotorod) [3]; 300 mg/kg
  Tox 30 min: 0/4
  Tox 4 h: 0/2

## CCOC(=O)[C@@H]1C(=O)C2=C(C[C@H]1C)Nc1ccc(Br)cc1S2 (relative stereo) [Compound 4k, 7-Bromo-3-carbethoxy-2-methyl-2,3-dihydro-1H-phenothiazin-4[10H]-one]
[1]; 4 h, read-out: MES 4 h
  responders at 10 mg/kg: 0%
  responders at 30 mg/kg: 0%
[1]; [6]
  responders at 100 mg/kg: 0%
[1]; [7]
  responders at 300 mg/kg: 100%
[1]; [14]
  responders at 10 mg/kg: 0%
[1]; [8]
  responders at 30 mg/kg: 0%
  responders at 300 mg/kg: 100%
[1]; [9]
  responders at 100 mg/kg: 0%
[2]; [15]
  responders at 10 mg/kg: 0%
[2]; [10]
  responders at 30 mg/kg: 0%
  responders at 100 mg/kg: 0%
[2]; [11]
  responders at 300 mg/kg: 0%
[2]; [16]
  responders at 10 mg/kg: 0%
[2]; [12]
  responders at 30 mg/kg: 0%
  responders at 100 mg/kg: 0%
[2]; [13]
  responders at 300 mg/kg: 0%
Neurotoxicity (rotorod) [3]; 10 mg/kg
  Tox 30 min: 0/4
  Tox 4 h: 0/2
Neurotoxicity (rotorod) [3]; 30 mg/kg
  Tox 30 min: 0/8
  Tox 4 h: 0/4
Neurotoxicity (rotorod) [3]; 100 mg/kg
  Tox 30 min: 0/4
  Tox 4 h: 0/2
Neurotoxicity (rotorod) [3]; 300 mg/kg
  Tox 30 min: 0/8
  Tox 4 h: 0/4
